Source: PMC13110267, “Fair and Square: Design, Synthesis and Biological Evaluations of Squaric Acid Derivatives as Novel HDAC8 Inhibitors” (Chemmedchem, 2026)

How the values were obtained:
Format in all cases: biochemical
HDAC8 = target: T1, HDAC8 (Homo sapiens, UniProt Q9BY41); experiment: HDAC8 fluorometric enzyme inhibition assay, purified recombinant enzyme, 10-point dose-response; settings: for IC50: Table 1, purified recombinant HDAC8 10 nM, mean of three independent experiments, >35 µM = weak inhibitor; for IC50 (HDAC4)/IC50 (HDAC8): selectivity ratio HDAC8 over HDAC4
T1 construct: made in house
T1 sequence (Q9BY41 1-377): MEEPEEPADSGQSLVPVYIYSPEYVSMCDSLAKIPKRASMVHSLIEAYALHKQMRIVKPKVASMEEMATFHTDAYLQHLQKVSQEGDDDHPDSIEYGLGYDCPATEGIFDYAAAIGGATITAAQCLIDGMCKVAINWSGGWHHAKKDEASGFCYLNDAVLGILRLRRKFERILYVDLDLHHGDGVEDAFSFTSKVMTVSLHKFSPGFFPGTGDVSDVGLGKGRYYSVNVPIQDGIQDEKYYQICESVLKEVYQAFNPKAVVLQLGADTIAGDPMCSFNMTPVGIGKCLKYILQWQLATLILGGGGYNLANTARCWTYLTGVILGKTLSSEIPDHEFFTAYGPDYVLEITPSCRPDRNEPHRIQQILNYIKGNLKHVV
Method: (§1) Therefore, the first stage of biological evaluation focused on determining inhibitory concentration (IC50) values of the squaric acid derivatives against HDAC8 and HDAC4 using purified recombinant enzymes. Enzymatic inhibition was quantified using 10‐point dose–response assays, from which IC50 values were calculated (Table 1). HDAC8 and HDAC4 were employed at concentrations of 10 nM and 1 nM, respectively, while other zinc‐dependent HDAC isoenzymes were used at approximate concentrations of ∼1 nM, reflecting the purity of the commercially available preparations. […]
(§2) 1.3.1 HDAC Assay General Inform ation
(§3) The activity of HDAC1, HDAC4, HDAC6, HDAC8, and HDAC11 was determined using a fluorometric assay in black half-area 96-well microplates (Greiner Bio -One , Germany). HDAC1 (#50051) and HDAC 6 (#50006) were purchased from BPS Bioscience.
(§4) HDAC4, HDAC8 and HDAC11 were produced in house as previously described.7- 9 The enzymes were pre-incubated with serial dilutions of the compounds for 1 hour at 30 °C in either assay buffer (25 mM Tris-HCl, 75 mM KCl and 0.001% (v/v) Pluronic F -127, pH 8.0) or MAL buffer (137 m M NaCl, 50 mM Tris-HCl, 2.7 mM KCl, 1 mM MgCl₂, 0 .5 mg/ml bovine serum albumin (BSA), pH 8.0b) for HDAC11. The enzyme reaction was initiated by the addition of the following substrates: 20 µM Boc-L ys(T FA) -AMC for HDAC4 and HDAC8; 80 µM Boc-L ys(T FA) -AMC for HDAC11; and 50 µM Boc -Lys(Ac)-AMC for HDAC1 and HDAC6. After an incubation period of 60 minutes, the reaction was terminated by the addition of 1.7 µM 9,9,9-trifluoro-8-oxo-N -phenyl -nonanamide (SATFMK) for […]
(§5) HDAC6, and 1 µM 1,1-dimethyl -2-[5-(trifluoromethyl)pyrazin-2-yl]isoindoline -4-carbohydroxamic acid (FT895) for HDAC11. The deacetylated substrate was then cleaved into fluorescent 7-amino -4- methylcoumarin (AMC) by the addition of 0.42 mg/mL trypsin.
(§6) Measurements were performed using a PHERAstar FS fluorescence microplate reader (BMG LABTECH) with excitation at 360 nm and emission at 460 nm. The normalised enzyme activities were plotted against the respective ligand concentration and fitted with a four-parameter logistic function using GraphPad Prism 6 software.

HDAC4 = target: T2, HDAC4 (Homo sapiens, UniProt P56524); experiment: HDAC4 fluorometric enzyme inhibition assay, purified recombinant enzyme, 10-point dose-response; settings: Table 1; purified recombinant HDAC4 1 nM; mean of three independent experiments; >35 µM = weak inhibitor
T2 construct: made in house
Method: as §1, §2, §3, §4, §5, §6

HDAC1 = target: T3, HDAC1 (Homo sapiens, UniProt Q13547); experiment: HDAC1 fluorometric enzyme inhibition assay, purified enzyme; settings: Table 2; purified enzyme ~1 nM
T3 construct: purchased BPS Bioscience 50051
Method: as §1, §2, §3, §4, §5, §6

HDAC6 = target: T4, HDAC6 (Homo sapiens, UniProt Q9UBN7); experiment: HDAC6 fluorometric enzyme inhibition assay, purified enzyme; settings: Table 2; purified enzyme ~1 nM
T4 construct: purchased BPS Bioscience 50006
T4 sequence (Q9UBN7 1-1215): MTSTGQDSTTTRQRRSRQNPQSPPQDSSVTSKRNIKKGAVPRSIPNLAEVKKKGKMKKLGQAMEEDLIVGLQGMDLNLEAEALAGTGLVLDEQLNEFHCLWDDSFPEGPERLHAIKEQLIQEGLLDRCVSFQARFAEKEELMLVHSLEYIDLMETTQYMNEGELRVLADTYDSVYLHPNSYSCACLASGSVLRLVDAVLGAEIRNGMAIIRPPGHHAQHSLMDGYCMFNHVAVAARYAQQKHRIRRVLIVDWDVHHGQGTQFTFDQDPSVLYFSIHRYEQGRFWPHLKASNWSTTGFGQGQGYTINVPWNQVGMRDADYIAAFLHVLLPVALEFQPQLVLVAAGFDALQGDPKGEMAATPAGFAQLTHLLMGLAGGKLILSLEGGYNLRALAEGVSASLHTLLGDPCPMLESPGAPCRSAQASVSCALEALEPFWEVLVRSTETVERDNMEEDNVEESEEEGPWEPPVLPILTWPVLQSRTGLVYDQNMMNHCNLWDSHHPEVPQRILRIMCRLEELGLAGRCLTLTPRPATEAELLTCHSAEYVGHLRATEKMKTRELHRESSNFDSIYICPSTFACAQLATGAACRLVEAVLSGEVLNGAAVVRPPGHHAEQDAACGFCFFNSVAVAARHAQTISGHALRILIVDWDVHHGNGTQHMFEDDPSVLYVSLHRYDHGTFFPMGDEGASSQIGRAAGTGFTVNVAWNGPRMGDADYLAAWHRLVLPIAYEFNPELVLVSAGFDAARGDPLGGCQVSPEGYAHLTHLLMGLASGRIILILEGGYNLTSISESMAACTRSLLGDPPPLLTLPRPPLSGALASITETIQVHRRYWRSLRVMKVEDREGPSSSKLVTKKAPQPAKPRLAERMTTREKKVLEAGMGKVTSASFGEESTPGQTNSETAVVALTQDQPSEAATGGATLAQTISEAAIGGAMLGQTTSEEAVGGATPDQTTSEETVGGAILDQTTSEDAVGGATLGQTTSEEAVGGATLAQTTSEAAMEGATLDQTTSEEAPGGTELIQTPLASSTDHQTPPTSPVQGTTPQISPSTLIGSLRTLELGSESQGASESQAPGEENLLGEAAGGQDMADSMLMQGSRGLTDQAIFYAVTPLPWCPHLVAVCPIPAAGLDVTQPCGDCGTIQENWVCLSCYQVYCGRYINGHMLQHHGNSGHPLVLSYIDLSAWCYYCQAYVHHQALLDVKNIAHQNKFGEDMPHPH
Method: as §1, §2, §3, §4, §5, §6

HDAC11 = target: T5, HDAC11 (Homo sapiens, UniProt Q96DB2); experiment: HDAC11 fluorometric enzyme inhibition assay, purified enzyme; settings: Table 2; purified enzyme ~1 nM
T5 construct: made in house
T5 sequence (Q96DB2 1-347): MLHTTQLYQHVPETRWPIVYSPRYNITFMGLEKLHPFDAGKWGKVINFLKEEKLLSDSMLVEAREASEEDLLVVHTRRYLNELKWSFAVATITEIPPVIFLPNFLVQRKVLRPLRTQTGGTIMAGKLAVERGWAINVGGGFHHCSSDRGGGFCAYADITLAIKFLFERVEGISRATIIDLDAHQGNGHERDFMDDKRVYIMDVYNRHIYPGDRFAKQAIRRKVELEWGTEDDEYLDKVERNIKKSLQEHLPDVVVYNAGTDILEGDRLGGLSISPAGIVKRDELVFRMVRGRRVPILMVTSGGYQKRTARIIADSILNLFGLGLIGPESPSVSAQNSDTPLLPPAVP
Method: as §1, §2, §3, §4, §5, §6

T2 sequence (P56524 whole entry): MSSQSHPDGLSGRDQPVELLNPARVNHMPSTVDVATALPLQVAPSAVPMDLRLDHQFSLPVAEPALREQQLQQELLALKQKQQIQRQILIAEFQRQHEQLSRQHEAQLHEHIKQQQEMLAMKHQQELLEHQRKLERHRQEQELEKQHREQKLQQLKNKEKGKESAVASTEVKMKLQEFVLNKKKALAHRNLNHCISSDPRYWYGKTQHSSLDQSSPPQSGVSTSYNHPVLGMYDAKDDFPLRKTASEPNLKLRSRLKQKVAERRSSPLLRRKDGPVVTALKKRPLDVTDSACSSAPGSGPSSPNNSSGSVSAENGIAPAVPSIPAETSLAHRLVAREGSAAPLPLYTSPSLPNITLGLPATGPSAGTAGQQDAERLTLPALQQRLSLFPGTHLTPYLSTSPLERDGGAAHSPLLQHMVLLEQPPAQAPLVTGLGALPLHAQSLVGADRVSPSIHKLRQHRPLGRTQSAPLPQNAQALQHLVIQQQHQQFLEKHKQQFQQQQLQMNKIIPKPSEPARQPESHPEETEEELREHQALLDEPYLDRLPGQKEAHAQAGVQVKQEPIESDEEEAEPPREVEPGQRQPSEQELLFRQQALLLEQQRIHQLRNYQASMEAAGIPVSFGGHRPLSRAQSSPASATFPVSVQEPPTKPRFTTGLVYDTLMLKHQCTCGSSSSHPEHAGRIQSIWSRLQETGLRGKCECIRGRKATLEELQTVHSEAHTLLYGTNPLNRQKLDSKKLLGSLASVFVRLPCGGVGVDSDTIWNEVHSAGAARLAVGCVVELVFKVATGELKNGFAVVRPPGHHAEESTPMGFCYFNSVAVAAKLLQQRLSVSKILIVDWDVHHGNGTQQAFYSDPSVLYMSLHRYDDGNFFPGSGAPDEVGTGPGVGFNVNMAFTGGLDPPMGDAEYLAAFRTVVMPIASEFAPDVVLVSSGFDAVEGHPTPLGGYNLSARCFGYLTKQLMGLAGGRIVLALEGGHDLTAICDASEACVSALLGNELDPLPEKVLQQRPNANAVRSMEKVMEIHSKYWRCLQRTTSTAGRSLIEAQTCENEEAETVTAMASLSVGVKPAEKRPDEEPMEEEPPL
T3 sequence (Q13547 whole entry): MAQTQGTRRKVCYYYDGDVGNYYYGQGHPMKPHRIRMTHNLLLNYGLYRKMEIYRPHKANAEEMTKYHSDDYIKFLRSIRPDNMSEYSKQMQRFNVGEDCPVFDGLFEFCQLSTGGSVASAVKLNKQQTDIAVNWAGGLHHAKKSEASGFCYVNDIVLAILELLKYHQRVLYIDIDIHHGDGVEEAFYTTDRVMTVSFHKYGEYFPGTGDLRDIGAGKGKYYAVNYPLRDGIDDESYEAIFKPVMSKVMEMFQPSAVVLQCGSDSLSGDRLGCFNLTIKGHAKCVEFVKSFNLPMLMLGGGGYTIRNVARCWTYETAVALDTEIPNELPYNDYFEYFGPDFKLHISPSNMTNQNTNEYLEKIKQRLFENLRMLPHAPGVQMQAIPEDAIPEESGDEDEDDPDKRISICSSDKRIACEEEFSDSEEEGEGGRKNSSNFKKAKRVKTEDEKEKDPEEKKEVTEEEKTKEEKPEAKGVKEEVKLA

Row | SMILES | IC50 (HDAC8) | IC50 (HDAC4)/IC50 (HDAC8) (HDAC8) | IC50 (HDAC4) | IC50 (HDAC1) | IC50 (HDAC6) | IC50 (HDAC11)
1 | CCOc1c(Nc2ccc(F)cc2)c(=O)c1=O [Compound 9b] | 1200 ± 30 nM | 7.1 | 8.5 ± 5.3 µM | 7 ± 2.7 µM | 2.3 ± 1.6 µM | 25 ± 8 µM
2 | O=c1c(NCc2ccccc2)c(NCc2ccccc2)c1=O [Compound 13b] | 1800 ± 700 nM | 2.6 | 4.6 ± 0.9 µM | 8.3 ± 3.6 µM | 6.1 ± 3.5 µM | > 35 µM
3 | O=c1c(Nc2ccc(Br)cc2)c(Nc2ccc(Br)cc2)c1=O [Compound 13c] | 2000 ± 1000 nM | 5.5 | 11 ± 4 µM | 8.1 ± 4.3 µM | 2.9 ± 1.3 µM | > 35 µM
4 | CN(Cc1ccccc1)c1c(N(C)Cc2ccccc2)c(=O)c1=O [Compound 14b] | 1300 ± 200 nM | 10.8 | 14 ± 3 µM | 17 ± 16 µM | 6.9 ± 2.5 µM | > 35 µM
